Data set [1] deals with L. donovani intracellular amastigotes. Kind of data set: Intracellular amastigotes assay, L. donovani infecting THP-1 macrophages (image-based infection ratio). In kind it is cell-based. The following applies: Leishmania donovani, 96 h, intracellular amastigotes infecting THP-1 macrophages, 4 days incubation, read-out: L. donovani EC50 amastigote. The procedure:
(§1) THP-1 cells were cultivated in suspension at a density of 10^5 to 10^6 cells/mL in RPMI (Gibco 1640, United States) medium supplemented with 10% heat-inactivated FBS and 1% streptomycin/penicillin at 37°C and 5% CO2. The differentiation of THP-1 into macrophages was induced by incubation of the cells for 48 hours with phorbol 12-myristate 13-acetate (PMA) at 50 ng/ml. For infection, late-stage L. major or L. donovani rich in metacyclic promastigotes was added to differentiated THP-1 cells (ratio of 50 parasites to 1 host cell) in Evotec™ 384-well microplates using a FlexDrop™ (Perkin Elmer) to dispense 50 µL/well. Compounds were added 24 hours after infection and microplates were incubated at 37°C and 5% CO2 for 4 days. Amphotericin B as the reference compound (positive control) at 10 µM as the EC100 and 1% DMSO (negative control) were used in all the plates for data normalization (see bellow). […] Microplates were read in an Opera confocal microscope (Perkin Elmer), enabling the determination of the infection ratio of the parasites by image analysis. […] The macrophage nuclei and internalized parasites were identified and counted if localized in the foreground previously selected (Figure S1). With this technique, extracellular parasites were not considered in the calculations, and the infection ratio was determined by the number of infected cells divided by the total number of cells after normalization based on the controls. The average infection ratios from the positive and negative controls were normalized to 0% and 100% infection, and the infection ratio read from each compound activity was proportionally distributed within this range. […]
(§2) Infection of human macrophage cells in vitro with Leishmania has been previously described as a suitable model for screening and was adopted for our purpose. […] The average Z-factor calculated per plate based on the reference drug (amphotericin B) and carrier (1% DMSO) was 0.62 for L. major infection and 0.59 for L. donovani infection, and minimum accepted Z-factor for the analysis was 0.5.

The nature of data set [2]: Microsomal stability assay, rat liver microsomes. In kind it is in vitro ADME, Sprague-Dawley Rat. The following applies: 2 µM compound, 0.5 mg/mL microsomes; for half-life at 2 µM: Sprague-Dawley, rat, liver microsomes, first-order kinetics, read-out: theoretical half-life, rat liver microsomes. The procedure: Compounds at a concentration of 2 µM in 0.2% DMSO were incubated with 0.5 mg/mL rat (Sprague-Dawley Rat, BD Gentest) and human (human pool donors, BD Gentest) liver microsomes in potassium phosphate buffer in a reaction started by the addition of NADPH and stopped either immediately or at 5, 10, 30, 60 or 120 minutes for a precise estimate of microsomal stability. The corresponding loss of the parent compound was determined by a quadrupole liquid chromatography-mass spectrometry (LC-MS) with diode-array detection (Agilent 1200, Agilent Technology). The samples were passed through trapping cartridges (Security Guard Cartridge, Gemini C18, 4×2.0 mm, 3 µm, Phenomenex) followed by an analytical column (Gemini C18, 50×2.0 mm, 3 µm, Phenomenex). Positive electrospray ionization (ESI+) was employed for this analysis. The mobile phases A (water with 0.1% formic acid) and B (acetonitrile with 0.1% formic acid) were used at a flow rate of 0.3 mL/min. Gradient elution started with 95% mobile phase A and 5% mobile phase B. Elution was changed to a linear gradient until 50% A and B for 1 min. This condition was held for 0.5 min, then increased to 95% B over 0.5 min, and held for 1.5 min. Then, the elution gradient returned to 95% A and 5% B over 0.5 min, was held for the remaining 3.5 min. The percentage of the remaining compound was calculated by comparison with the initial quantity at 0 min. Half-life was calculated based on first-order reaction kinetics.
A general note: Liver microsomes are vesicles of endoplasmic reticulum, rich in cytochrome P450 enzymes.

Data set [3] relates to L. major intracellular amastigotes. Put plainly: Intracellular amastigotes assay, L. major infecting THP-1 macrophages (image-based infection ratio). The data set is classed as cell-based. The following applies: Leishmania major, 96 h, intracellular amastigotes infecting THP-1 macrophages, 4 days incubation, read-out: L. major EC50 amastigote. As to the method:
as §1, §2

Data set [4] in a line: Human cell toxicity test, resazurin viability. The data set is classed as cell-based. The following applies: THP-1 cells (non-differentiated); THP-1 human cell line; read-out: Cytotoxicity CC50 THP-1. As to the method:
To assess the cytotoxicity of compounds on THP-1, an acute monocytic leukemia-derived human cell line (ATCC TIB-202™), a viability assay also using resazurin reduction with minor modifications in concentration and incubation time was performed. Z-factor [15] and other parameters were used for secondary screening validation and hit exclusion.
To exclude potentially toxic compounds from the active list, we performed a secondary viability screening using the non-differentiated human macrophage cell line THP-1. Compounds that interfered with THP-1 viability at a concentration of 10 µM or lower were discarded.

In data set [5] the test system is L. donovani promastigote. Kind of data set: Resazurin viability assay, L. donovani promastigotes. The data set is classed as cell-based. The following applies: Leishmania donovani; promastigotes; 10-point dose response, 2-fold dilutions from 20 µM; read-out: L. donovani EC50 promastigote. As to the method:
L. major MHOM/IL/81/FRIEDLIN and L. donovani MHOM/ET/67/HU3 promastigotes were cultivated at 28°C in axenic M199 culture medium (Welgene, S. Korea) supplemented with 10% heat-inactivated fetal bovine serum (FBS) (Gibco, United States) and 1% streptomycin/penicillin (Gibco, United States).
After compound addition to the assay plate (Evotec™ 384-well microplate, Germany), 20,000 L. major promastigote parasites from an exponential phase culture (∼10^7 parasites/mL) were diluted in M199, seeded in 50 µL per well using FlexDrop™ and incubated at 28°C for 28 hours, followed by the addition of 5 mM resazurin sodium salt (Sigma R7017, United States) and further incubation for 20 hours at 28°C. After a 48-hour exposure to compounds, the reference drug (EtBr) or control (1% DMSO), the parasites were fixed with 2% paraformaldehyde (PFA) and plates were read in Victor3™ (Perkin Elmer) at 530 nm (excitation) and 590 nm (emission). This fixation step is not necessary for resazurin readout, but allows flexibility in the automation schedule and increases assay robustness by decreasing metabolic variability between populations across wells and plates. Z-factor, calculated as 1−(3×σp+3×σn)/(|μp−μn|), where μp, σp, μn and σn are the means (μ) and standard deviations (σ) of both the positive (p) and negative (n) controls, and other parameters, including DRC plates for verification of the reference drug EC50 (accepted if within the range of 3× higher or lower than a defined value from the literature), coefficient of variation not higher than 10% in the controls and edge effect evaluation, were used for screening validation and hits selection.
Infection of human macrophage cells in vitro with Leishmania has been previously described as a suitable model for screening and was adopted for our purpose. The 124 active compounds selected from the secondary assay were tested in 10-point dose response with 2-fold serial dilutions starting from 20 µM against promastigotes and intracellular amastigotes of L. major and L. donovani infecting macrophages. The average Z-factor calculated per plate based on the reference drug (amphotericin B) and carrier (1% DMSO) was 0.62 for L. major infection and 0.59 for L. donovani infection, and minimum accepted Z-factor for the analysis was 0.5.
A general note: Alamar Blue is a resazurin reagent that responds to reducing activity.

We go through two compounds from publication PMC2864270 (PLoS Neglected Tropical Diseases, 2010).

pEC50: −log10 of the molar value.

Turning to `COc1cc(/C=N/NC(=O)c2cccc(C)c2O)ccc1OCc1ccccc1` [CA272], the pEC50 – broadly, −log10 of the EC50, conventionally taken in molar units – in data set [1] is 4.72; in data set [3], 6.10; in data set [5], 5.57. In addition, the “parent compound remaining, rat liver microsomes” value in data set [2] (NADPH, 30 minutes) is reported as 53.3%. Further, the half-life (usually the time in which the quantity being followed falls by half) at 2 µM in data set [2] was 31.8 min. For the same compound, the CC50 (commonly the concentration at which the toxic effect on the cells reaches its halfway point) in data set [4] is greater than 10000 nM.

For `Cc1nc2c(Cl)cccc2c(O)c1CN1CCCCC1C` (stereo not drawn) [CH872], the pEC50 in data set [1] was 7.22; in data set [3], 6.52; in data set [5] it was 7.30. In data set [2], the “time after which completely degraded, rat liver microsomes” value is 25 min. In addition, in data set [2], the half-life at 2 µM was determined as 4.1 min. In addition, in data set [4], the CC50 is greater than 10000 nM.
